Experimental data reported in patent publication US11344025B2, “Organ preconditioning formulation with mitochondrial elongating agents” (MUSC FOUNDATION FOR RESEARCH DEVELOPMENT, priority 2017, dated 2022).
“Also recorded” adds a separate entry of the source. Read-outs that look alike come from different tables or passages of the source.

Assays:
[1] = Systemic administration of Mdivi-1, adverse effects; format: in vivo
Description: The studies proposed will delineate the role of mito morphology alterations in cardiac-Tx. They will also determine how donor BD impacts IM, and identify an optimum drug delivery strategy for reducing acute post-Tx injury through mito shape manipulation. The opposing roles of mito fission and fusion regulate mito morphology and function. A number of key proteins have been identified which control this process (DRP-1, mito fission protein-1 (Fis-1) and mito fission factor (mff), Mfn1/2, and OPA-1). Given the importance of these proteins for the maintenance of cellular respiration, genetic deletion is most often fatal. However, C57Bl/6 homozygous mito fission factor (Mff)-deficient (Mff^gt−/−) mice are available, as are pharmacological promoters of fusion, M1 and Mdivi-1. […] Using these tools, the inventors will dissect the role of fission and fusion in IRI and rejection in the context of organ Tx. The inventors propose three sub Aims. In SA 2.1, the inventors will determine the impact of mito fission inhibition, and thus fusion promotion, through comparing the effects of IRI and AR of recipients receiving hearts from C57Bl/6 wildtype (wt) or C57Bl/6 homozygous mito fission factor (Mff)-deficient (Mff^gt−/−) donors. In SA 2.2 the inventors will explore the therapeutic potential of donor heart pre-treatment with M1, Mdivi-1, and a combination of both. […]

focal cardiac ischemia = details: non-transplant setting, previous studies, cited from earlier work
MCECs = test: mitoSOX staining of mito ROS after CIT; format: cell-based, mouse; details: CIT-induced ROS
Description: Hypoxic cold storage and reperfusion injury culture model: A modified cell culture model that simulates the IR process of organ Tx will be used. […] Cells will then be sealed in a hypoxic chamber filled with nitrogen at 4° C. After CIT, cells will undergo simulated reperfusion by removing the preservation solution and reintroducing fresh DMEM containing 10% FBS.

[2] = test system: sensitized allogeneic CD8+ T-cells cocultured with MCECs; test: EC/T cell co-culture: cytokine release by alloreactive CD8 T cells; format: cell-based, mouse; details: cold stored (CIT) and treated ECs
Description: EC/T cell co-culture: Using the genetically modified and pharmacological inhibitors the inventors will dissect the impact of EC mito morphology manipulation on T cell activation/co-stimulation. These studies will focus on MCECs given the availability of reagents and ability to generate alloreactive CD8 T cells as previously published.
Allogenic CD8 T cells will be generated. In brief, C57Bl/6 mice will be inoculated with MCECs i.p. and 3 weeks later spleens will be harvested and CD8 T cells isolated using bead isolation techniques. These MCEC alloreactive CD8 T cells will then be co-cultured with MCECs in the normoxic and CIT models.

Compound | adverse side effects [1] | cardioprotection from focal IRI (focal cardiac ischemia) | cardioprotection from focal IRI (focal cardiac ischemia; listed as Mdivi1) | mito ROS (mitoSox) (MCECs) | Granzyme B (GrB) production by co-cultured alloreactive CD8 T cells [2] | IFN-gamma production by co-cultured alloreactive CD8 T cells [2]
COc1cc(-n2c(S)nc3ccccc3c2=O)c(Cl)cc1Cl [Mdivi-1] | no detectable adverse side effects | provides protection from IRI; also recorded: promote cardioprotective effects | protect both myocardium and microvasculature |  |  | 
CC(=O)N[C@@H](CS)C(=O)O [NAC, N-Acetyl Cysteine] |  |  |  | completely abrogated ROS | has no impact; also recorded: no significant effect; also recorded: do not decrease Granzyme-B to the extent of DRP-KD | has no impact; also recorded: no significant effect
